Biological target: FABP4 (Homo sapiens, UniProt P15090)
Test: TdF (Temperature Dependence Fluorescence) assay, thermal shift, FABP4
Type: binding
Excerpt: TdF (Temperature Dependence Fluorescence) Assay for FABP3 and FABP4
The TdF assay was mainly conducted in the 96-well based CHROMO-4 real time fluorescence plate reader (BioRad). The Sypro Orange (Sigma-Aldrich), environmentally sensitive fluorescence dye, was used to monitor the protein folding-unfolding transition. Protein-ligand binding was gauged by the change (or shift) in the unfolding transition temperature (ΔTm) acquired at protein alone with respect to protein in the presence of ligand of interest.
The compound of interest was first prepared in DMSO stock (typical concentration: 10 mM). […] Final percentage of DMSO resided in the sample was 2%. The sample plate was heated from 30° C. to 90° C. with thermal ramping rate of 1° C./min. The fluorescence signals were acquired with excitation and emission wavelengths centered at 490 and 560 nm respectively. The instrument thermal stability was ±0.2° C.
Theoretical basis for TdF-based ligand binding affinity constant
In brief, the binding constant of the ligand at the Tm is expressed as below:
[formula] where To is the midpoint of unfolding for unliganded protein and Tm is the midpoint of unfolding in presence of ligand. [LTm] is free ligand at Tm. The ΔHu and ΔCpu are the enthalpy of unfolding and heat capacity change of unfolding for the protein respectively.
The nonlinear regression fitting in general readily reaches convergence by properly constraining the initial values for the fitting parameters (e.g. the initial “guess” for the ΔHu was constrained to 120 kcal/mol; initial Yn and mn were set to 1 and zero to best represent the melting curve along the low temperature region; negative slope of −0.5 was initially chosen for mu; initial Tm was also constrained to 50° C.).
[formula] (see Brandts et al and Mayhood et al, shown above) where ΔHL (T) is the van't Hoff enthalpy of ligand binding at temperature T and ΔCpL is the heat capacity upon ligand binding. For simplicity, the ΔCpL and ΔHL (T) were set to zero and −7 kcal/mol respectively. […] TdCD (Temperature-dependent Circular Dichroism) Assay for FABP3/4/5

Chain of FABP4 (P15090 whole entry, species assumed): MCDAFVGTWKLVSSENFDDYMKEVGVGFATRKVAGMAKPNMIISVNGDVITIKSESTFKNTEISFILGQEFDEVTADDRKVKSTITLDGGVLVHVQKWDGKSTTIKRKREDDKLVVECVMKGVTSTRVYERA

Structure (SMILES) | FABP4 TdF Kd | Kd [nM]
O=c1cc(COc2cccnc2Br)[nH]c2nc(-c3ccccc3)nn12 [1-148] |  | > 500
Cc1c(Cl)cccc1N(Cc1cc(=O)n2nc(-c3ccccc3)nc2[nH]1)C1CC1 [17-2] |  | > 500
O=c1cc(COc2cccnc2)[nH]c2nc(-c3ccccc3)nn12 [1-19] |  | > 500
CCC1(OCc2cc(=O)n3nc(-c4ccccc4)nc3[nH]2)CCCCC1 [1-96] |  | > 500
CCc1ccc(OCc2cc(=O)n3nc(COC(C)=O)nc3[nH]2)cc1 [8-9] |  | > 500
CCc1ccc(OCc2cc(=O)n3nc(-c4ccncc4)nc3[nH]2)cc1 [8-10] |  | > 500
Cc1ccc(OCc2cc(=O)n3nc(-c4ccccc4)nc3[nH]2)cc1C [1-63] | B (0.5 ≦ B < 0.001 μM) | 
CCc1cccc(C)c1OCc1cc(=O)n2nc(-c3ccccc3)nc2[nH]1 [1-33] | B (0.5 ≦ B < 0.001 μM) | 
O=c1ccccn1Cc1cc(=O)n2nc(-c3ccccc3)nc2[nH]1 [1-48] |  | > 500
CCc1ccc(OCc2cc(=O)n3nc(-c4ccccc4)nc3[nH]2)c(C(C)(C)C)c1 [1-68] | B (0.5 ≦ B < 0.001 μM) | 
O=c1cc(COc2ccccn2)[nH]c2nc(-c3ccccc3)nn12 [1-47] |  | > 500
Cc1cc(OCc2cc(=O)n3nc(-c4ccccc4)nc3[nH]2)ccc1C(C)C [1-70] | B (0.5 ≦ B < 0.001 μM) | 
O=c1cc(CN(c2cccc(Cl)c2)C2CC2)[nH]c2nc(-c3ccccc3)nn12 [17-3] | B (0.5 ≦ B < 0.001 μM) | 
C[C@@H]1C[C@@H](OCc2cc(=O)n3nc(-c4ccccc4)nc3[nH]2)CC(C)(C)C1 [1-110] | B (0.5 ≦ B < 0.001 μM) | 
Cc1c(Cl)cccc1SCc1cc(=O)n2nc(-c3ccccc3)nc2[nH]1 [16-2] | B (0.5 ≦ B < 0.001 μM) | 
O=c1cc(COc2ccccc2C(F)(F)F)[nH]c2nc(-c3ccccc3)nn12 [1-62] | B (0.5 ≦ B < 0.001 μM) | 
Cc1c(Cl)cccc1N(C)C(=O)c1cc(=O)n2nc(-c3ccccc3)nc2[nH]1 [11-4] |  | > 500
CN1CCc2c(cccc2OCc2cc(=O)n3nc(-c4ccccc4)nc3[nH]2)C1 [1-98] |  | > 500
Cc1cc(OCc2cc(=O)n3nc(-c4ccccc4)nc3[nH]2)n(C)n1 [1-37] |  | > 500
Cn1ncc2cccc(NCc3cc(=O)n4nc(-c5ccccc5)nc4[nH]3)c21 [1-106] |  | > 500
CC(C)c1ccccc1OCc1cc(=O)n2nc(-c3ccccc3)nc2[nH]1 [1-66] | B (0.5 ≦ B < 0.001 μM) | 
CCc1ccc(NCc2cc(=O)n3nc(C(F)(F)F)nc3[nH]2)cc1 [5-2] |  | > 500
Cc1c(Cl)cccc1OCc1[nH]c2nc(-c3ccccc3)nn2c(=O)c1Br [2-1] | B (0.5 ≦ B < 0.001 μM) | 
O=c1cc(COc2cccc(C(F)(F)F)c2)[nH]c2nc(-c3ccccc3)nn12 [1-59] |  | > 500
O=c1cc(CN2CCn3c(nnc3C3CC3)C2)[nH]c2nc(-c3ccccc3)nn12 [1-101] |  | > 500
CN(Cc1cc(=O)n2nc(-c3ccccc3)nc2[nH]1)C1CCCCC1 [1-15] |  | > 500

Results, then the compound that gave them:

FABP4 TdF Kd | Kd [nM] | Structure (SMILES)
B (0.5 ≦ B < 0.001 μM) |  | CN(Cc1cccc(Cl)c1)C(=O)C1(OCc2cc(=O)n3nc(-c4ccccc4)nc3[nH]2)CCCCC1 [48-31]
B (0.5 ≦ B < 0.001 μM) |  | O=C(NCC1(CO)CCC1)C1(OCc2[nH]c3nc(-c4ccccc4)nn3c(=O)c2Cl)CCCCC1 [50-6]
B (0.5 ≦ B < 0.001 μM) |  | O=C(NC1(CO)CCCC1)C1(OCc2cc(=O)n3nc(-c4ccccc4)nc3[nH]2)CCCCC1 [48-59]
B (0.5 ≦ B < 0.001 μM) |  | CC1(C)CN(Cc2cc(=O)n3nc(-c4ccccc4)nc3[nH]2)c2cccc(Br)c21 [39-5]
 | ≤ 1 | COc1ccccc1C1(CNC(=O)C2(OCc3cc(=O)n4nc(-c5ccccc5)nc4[nH]3)CCCCC2)CC1 [48-12, N-((1-(2-methoxyphenyl)cyclopropyl)methyl)-1-((7-oxo-2-phenyl-4,7-dihydro-[1,2,4]triazolo[1,5-a]pyrimidin-5-yl)methoxy)cyclohexanecarboxamide]
B (0.5 ≦ B < 0.001 μM) |  | O=C(NCCc1cccc(Cl)c1)C1(OCc2cc(=O)n3nc(-c4ccccc4)nc3[nH]2)CCCCC1 [48-45]
 | > 500 | O=C(O)C1(OCc2cc(=O)n3nc(-c4ccccc4)nc3[nH]2)CCCCC1 [48-2, 1-((7-oxo-2-phenyl-4,7-dihydro-[1,2,4]triazolo[1,5-a]pyrimidin-5-yl)methoxy)cyclohexanecarboxylic acid]
 | > 500 | O=c1cc(CN2CCc3c(C4CC4)cccc32)[nH]c2nc(-c3ccccc3)nn12 [29-1]
 | ≤ 1 | O=C(NCC1(c2ccc(Cl)cc2)CCC1)c1c(Cl)cccc1OCc1cc(=O)n2nc(-c3ccccc3)nc2[nH]1 [47-24, 2-chloro-N-((1-(4-chlorophenyl)cyclobutyl)methyl)-6-((7-oxo-2-phenyl-4,7-dihydro-[1,2,4]triazolo[1,5-a]pyrimidin-5-yl)methoxy)benzamide]
B (0.5 ≦ B < 0.001 μM) |  | O=C(NC1(CO)CC1)C1(OCc2cc(=O)n3nc(-c4ccccc4)nc3[nH]2)CCCCC1 [48-36]
B (0.5 ≦ B < 0.001 μM) |  | O=c1c(Cl)c(COc2cccc(Cl)c2C2CCC2)[nH]c2nc(-c3ccccc3)nn12 [26-4]
 | > 500 | O=C(N1CCS(=O)(=O)CC1)C1(OCc2cc(=O)n3nc(-c4ccccc4)nc3[nH]2)CCCCC1 [48-4, 4-[[1-[(4,7-dihydro-7-oxo-2-phenyl[1,2,4]triazolo[1,5-a]pyrimidin-5-yl)methoxy]cyclohexyl]carbonyl]thiomorpholine, 1,1-dioxide]
B (0.5 ≦ B < 0.001 μM) |  | O=c1c(Cl)c(COc2csc(C(F)(F)F)c2)[nH]c2nc(-c3ccccc3)nn12 [24-3]
B (0.5 ≦ B < 0.001 μM) |  | O=C(NCC1(O)CCOCC1)c1c(Cl)cccc1OCc1cc(=O)n2nc(-c3ccccc3)nc2[nH]1 [47-25, 2-chloro-N-((4-hydroxytetrahydro-2H-pyran-4-yl)methyl)-6-((7-oxo-2-phenyl-4,7-dihydro-[1,2,4]triazolo[1,5-a]pyrimidin-5-yl)methoxy)benzamide]
B (0.5 ≦ B < 0.001 μM) |  | O=C(NCC1(CO)CCC1)c1ccccc1OCc1cc(=O)n2nc(-c3ccccc3)nc2[nH]1 [47-58]
B (0.5 ≦ B < 0.001 μM) |  | O=C(Nc1c(Cl)cccc1OCc1cc(=O)n2nc(-c3ccccc3)nc2[nH]1)C1CC1 [49-3]

FABP4 TdF Kd | Kd [nM] | Structure (SMILES)
 | ≤ 1 | O=C(NCC1(c2cccc(Cl)c2)CCC1)c1c(Cl)cccc1OCc1cc(=O)n2nc(-c3ccccc3)nc2[nH]1 [47-37, 2-chloro-N-((1-(3-chlorophenyl)cyclobutyl)methyl)-6-((7-oxo-2-phenyl-4,7-dihydro-[1,2,4]triazolo[1,5-a]pyrimidin-5-yl)methoxy)benzamide]
 | > 500 | O=C(O)c1c(Cl)cccc1OCc1cc(=O)n2nc(C(F)(F)F)nc2[nH]1 [53-3]
 | ≤ 1 | O=c1cc(CSc2cccc(Cl)c2C2CC2)[nH]c2nc(-c3ccccc3)nn12 [52-4]
 | > 500 | CC1(NC(=O)C2(OCc3cc(=O)n4nc(-c5ccccc5)nc4[nH]3)CCCCC2)COC1 [48-43]
B (0.5 ≦ B < 0.001 μM) |  | CN(CC1(CO)CCC1)C(=O)C1(OCc2cc(=O)n3nc(-c4ccccc4)nc3[nH]2)CCCCC1 [48-46]
B (0.5 ≦ B < 0.001 μM) |  | O=c1c(Cl)c(COCC2(c3cccc(C(F)(F)F)c3)CC2)[nH]c2nc(-c3ccccc3)nn12 [24-7]
B (0.5 ≦ B < 0.001 μM) |  | O=C(N1CCc2ccc(Cl)cc21)C1(OCc2cc(=O)n3nc(-c4ccccc4)nc3[nH]2)CCCCC1 [48-64]
B (0.5 ≦ B < 0.001 μM) |  | O=C(CC1CC1)Nc1c(Cl)cccc1OCc1cc(=O)n2nc(-c3ccccc3)nc2[nH]1 [49-6]
B (0.5 ≦ B < 0.001 μM) |  | O=c1cc(COc2cc(Cl)ccc2CC2CC2)[nH]c2nc(-c3ccccc3)nn12 [43-3]
B (0.5 ≦ B < 0.001 μM) |  | COc1ccccc1C1(CNC(=O)C2(OCc3cc(=O)n4nc(-c5ccccc5)nc4[nH]3)CCCCC2)CCC1 [48-57]
B (0.5 ≦ B < 0.001 μM) |  | Cc1ccccc1C(C)Cc1cc(=O)n2nc(-c3ccccc3)nc2[nH]1 (stereo not shown) [35-5]
B (0.5 ≦ B < 0.001 μM) |  | Cn1nccc1NC(=O)c1c(Cl)cccc1OCc1cc(=O)n2nc(-c3ccccc3)nc2[nH]1 [47-2, 2-chloro-N-(1-methyl-1H-pyrazol-5-yl)-6-((7-oxo-2-phenyl-4,7-dihydro-[1,2,4]triazolo[1,5-a]pyrimidin-5-yl)methoxy)benzamide]
B (0.5 ≦ B < 0.001 μM) |  | O=C(NCC1(CO)COC1)c1c(Cl)cccc1OCc1cc(=O)n2nc(-c3ccccc3)nc2[nH]1 [47-34, 2-chloro-N-((3-(hydroxymethyl)oxetan-3-yl)methyl)-6-((7-oxo-2-phenyl-4,7-dihydro-[1,2,4]triazolo[1,5-a]pyrimidin-5-yl)methoxy)benzamide]
B (0.5 ≦ B < 0.001 μM) |  | O=C(NCC1(CO)CCCC1)c1ccccc1OCc1cc(=O)n2nc(-c3ccccc3)nc2[nH]1 [47-59]
 | > 500 | CNCC1(COC(=O)C2(OCc3cc(=O)n4nc(-c5ccccc5)nc4[nH]3)CCCCC2)CCC1 [48-47]
 | > 500 | O=C(O)c1ccccc1OCc1cc(=O)n2nc(-c3ccccc3)nc2[nH]1 [47-53]

Reference: patent US8815875B2 (Merck Sharp & Dohme Corp., priority 2008, dated 2014)
